Data taken from patent US20170269060A1, “Assays and Compounds to Treat Kidney Diseases” (Rush University Medical Center, priority 2014, published 2017).
Values after ≈ are worked out from the molar mass of the structure shown.

Columns and labels:
[1] = system: murine podocytes; experiment: Primary HCS screen of chemical library, cell roundness Z score, PAN injury; assay type: cell-based; conditions: PAN 16 μg/ml, 48 hours; for primary hit (protects podocytes from PAN damage): Z-score cutoff ≦−1.28
Description: Screening of chemical libraries, which include the MicroSource Spectrum collection (MicroSource Discovery Systems, Inc., Gaylorsville, C T, 2000 compounds) and Enzo kinase inhibitor array (Enzo Life Sciences, Farmingdale, N.Y., 80 compounds), Sigma, Millipore, Tocris and Cayman (41 compounds), was performed using multiwall plates. Podocytes cultured in multiwall plates were used in these assays. 100 nL of each compound, also in multiwall plates (at a stock concentration of 1 mM to 10 mM in DMSO), was added to each well of a podocyte containing multiwall plate using the Perkin Elmer Janus automated workstation with the help of a 96-pin or 384-pin pin tool (100 nL, PerkinElmer). The compounds were added in the absence or presence of podocyte damaging agent (such as PAN). The plates containing the compounds were subsequently placed in tissue culture incubators and cells were further cultured for 1-72 h at 37° C. A compound that decreased PAN damaged was identified by quantifying the changes in at least one of the following parameters: cell morphology, cell roundedness, F-actin intensity, number of focal adhesions, intensity or size of focal adhesions, length of actin fibers, size of actin fibers, percent damaged or percent healthy cells etc. In certain cases, hits were validated by acquiring a fresh batch of the compound from commercial sources and performing dose-response curves. Images from the primary screen were quantified for cell morphology parameter and were normalized by calculating z-score (z) for each test compound, to compensate for any plate-to-plate variability. (Wiggins, Kidney International, 2007) z was calculated for each of the test compounds using the formula: […]
where x is the raw measured value with each compound, μ is the mean of all measured raw values across a plate and a is the standard deviation of the measurements. A z-score of […], corresponding to 90% population under the curve, was used as a cutoff to identify primary hits in the assay.
To identify small molecules that protect podocytes from PAN injury, a chemical library of 2121 pharmacologically active compounds was screened. Podocytes were treated with compounds from the chemical library in the presence of PAN (16 μg/ml) at 37° C. for 48 hours. The assay plates also contained eight positive (PAN and MZR treatment) and eight negative (PAN treatment) control wells. Wells were imaged and analyzed, and the mean cell roundness per cell was calculated for each well. Mean cell roundness was normalized using plate-based positive and negative controls, and a Z score for the change in cell morphology on treatment with each compound (SD away from the plate mean) was calculated. The results from the screen are presented as a graph in FIG. 7A. Wells with nuclei counts. […] Primary hits (compounds that protected podocytes from PAN damage) were identified from the assay using a Z-score cutoff of ≦−1.28 corresponding to the 10% population on one side of the bell-shaped curve. […] Given that our assay is image based, the images from all initial hits were visually inspected manually, which eliminated 10 compounds as nonhits. […] The identified list of primary hit compounds included three Rho kinase inhibitors (Y27632, GSK 429286, and Thiazovivin) and a p38 kinase inhibitor (SB 203580). […] Next, to validate the hit compounds identified from our screen, selected primary hits were reanalyzed using independently obtained powder forms of the compounds.

[2] = system: murine podocytes; experiment: Podocyte HCS phenotypic assay, PAN-induced podocyte injury; assay type: cell-based; conditions: for prevention of PAN induced injury, dose-response of percent damaged cells (FIG. 4A-4P): 30 ug/ml PAN, co-treatment, multi-parameter algorithm
Description: Conditionally immortalized human and murine podocytes were used in a majority of the assays. Human and murine podocytes were cultured as have been described previously (Saleem et al., JASN 13, 630-638 (2002); Mundel, Reiser et al., Experimental Cell Research, 236, p 248 (1997)). For example, murine podocytes derived from the mouse line H-2Kb-tsA58 were cultured under permissive conditions at 33° C. on rat-tail collagen coated dishes in RPMI medium supplemented with 10% heat inactivated FBS, penicillin and streptomycin (100 U/ml), and 10 U/ml recombinant mouse γ-interferon. Cells were then trypsinized and re-plated for differentiation at 37° C. in medium without γ-interferon. The cells were differentiated for 0 to 7 days and then reseeded to rat-tail collagen coated multi-well plates at a density of 1500/well or 500/well for 96 and 384 well plates, respectively. Cells were then further differentiated for another 5-14 days in the multi-well plates for subsequent experimentation with various reagents prior to fixation and analyses.
In some embodiments, podocytes were cultured at 37° C. for the first 7 days of differentiation in large tissue culture flasks and subsequently reseeded and further cultured at 37° C. in the 96-well assay plates for the next 4-6 days to provide low well-to-well variability in cell number in the assay plates and healthy podocytes expressing specific and well characterized podocyte markers synaptopodin and podocin.
Differentiated podocytes were cultured in 96-well or 384-well multiwall optical plates (PerkinElmer, Boston, Mass.). In some embodiments, differentiated podocytes were treated with various amounts of puromycin aminonucleoside (PAN), […] LPS, Adriamycin and other agents. In some embodiments, the cells were co-treated with chemical and other agents (such as mizouribine) to prevent damage from damaging agents (such as PAN). In other embodiments, the rescue agents were added 0-48 h after the addition of injury causing agents. In some embodiments, patient samples such as blood, serum, urine or other samples were added to differentiated podocytes to identify disease causing agents. In some embodiments, primary, differentiated patient podocytes were cultured to identify defects in structure and/or function.
After culturing for the appropriate time and treatment or control, cultured podocytes in multi-well optical plates were rinsed with phosphate buffered saline (PBS) and subsequently fixed using a solution of paraformaldehyde and sucrose in PBS (at a final concentration of 4% paraformaldehyde and 2% sucrose in PBS) for 30 min at room temperature. Following fixation, the cells were permeabilization using a solution of 0.3% Triton X-100 in PBS for 15 min at room temperature. For visualization of filamentous-actin (F-Actin) in cells, cells were stained with a solution of Alexa fluor 568 phalloidin (Invitrogen), as previously described. HCS CellMask Blue (Invitrogen) was used as a fluorescent stain for visualizing nuclei, cytoplasm and the individual cell boundaries. Additional proteins that were fluorescently labeled and analyzed using appropriate primary mAbs include synaptopodin (synpo, primary mAb from Santa Cruz), Paxillin (primary mAb clone Y113 from Millipore) for quantitation of focal adhesions, beta1 integrin, podocin, WT1 nephrin, CD2-AP may also be used. Other proteins may also be used for labeling. Appropriate secondary antibodies (fluorescently labeled) were used for fluorescent visualizations. High throughput confocal microscopy was done using the Opera LX (Perkin Elmer) with filters and exposure times according to manufacturer's instructions and as described before. Images were used in subsequent image analysis for quantitation of a variety of cellular parameters. Assays were performed in replicate wells for assay robustness.
Images for each frame of each well in multiple fluorescent channels were acquired using OPERA imaging system. […]

Compound | primary hit (protects podocytes from PAN damage) [1] | prevention of PAN induced injury, dose-response of percent damaged cells (FIG. 4A-4P) [2] | further results
C#C[C@]1(OC(C)=O)CC[C@H]2[C@@H]3CCC4=CC(=NO)CC[C@@H]4[C@H]3CC[C@@]21CC (mixture of isomers) [norgestimate] | identified |  | 
Cc1cccc(-c2[nH]ncc2-c2ccc3ncccc3n2)n1 [Alk5 Inhibitor2] |  | prevented PAN induced injury | 
O=c1cc(-c2ccc(O)cc2)oc2cc(O)cc(O)c12 [Apigenin] | primary hits | prevented PAN induced injury | 
COc1ccc2cc3[n+](cc2c1OC)CCc1cc2c(cc1-3)OCO2 [Berberine] | primary hits | prevented PAN induced injury | 
C[C@@H]1C[C@H]2[C@@H]3CCC4=CC(=O)C=C[C@]4(C)[C@@]3(F)[C@@H](O)C[C@]2(C)[C@@]1(O)C(=O)CO [DEX, Dexamethasone] |  |  | lowest concentration able to protect cells from PAN damage ([2]; PAN 30 μg/ml, F-actin fiber count, 48 h): 0.1 µM
COc1ccc(-c2cc(=O)c3c(O)cc(O)cc3o2)cc1O [Diosmetin] |  | prevented PAN induced injury | 
COc1cc2nc(N3CCN(C(=O)C4COc5ccccc5O4)CC3)nc(N)c2cc1OC (stereo not shown) [Doxazocin] | primary hits | prevented PAN induced injury | 
CCOc1ccc(Cc2nccc3cc(OCC)c(OCC)cc23)cc1OCC [Ethaverine] |  | prevented PAN induced injury | 
Nc1[nH]nc2nnc(-c3c(-c4ccccc4)nn4ccccc34)cc12 [FR 180204] |  | prevented PAN induced injury | 
CC1=C(C(=O)Nc2cc3cn[nH]c3cc2F)C(c2ccc(C(F)(F)F)cc2)CC(=O)N1 (stereo not shown) [GSK429286] | primary hit | prevented PAN induced injury | 
O=C1Cc2c([nH]c3ccc(Br)cc23)-c2ccccc2N1 [Kenpoullon] |  | prevented PAN induced injury | 
c1coc(CNc2ncnc3[nH]cnc23)c1 [Kinetin] |  | prevented PAN induced injury | 
NC(=O)c1ncn([C@@H]2O[C@H](CO)[C@@H](O)[C@H]2O)c1O [MZR, Mizoribine] |  |  | EC50 ([2]; Mus musculus, PAN 30 μg/ml, 48 hours, read-out: concentration reducing PAN damage by one half (half-maximal effective concentration)): 1.4 µg/mL (≈ 5.4 µM); concentration affording complete protection of podocytes from PAN injury ([2]; PAN 30 μg/ml, 48 hours): 5 µg/mL; dose-dependent protection of podocytes from PAN-induced injury ([2]; PAN 16-30 μg/ml, 48 hours, F-actin fibers and other parameters): dose-dependent protection; Z score of cell roundness ([1]; 37° C., negative Z score = active): −2.31±0.2
COc1nccc(-c2c(-c3ccc(F)cc3)ncn2C2CCC(O)CC2)n1 (stereo not shown) [P38 inhibitor (SB239063)] |  | prevented PAN induced injury | 
CN(C)c1ncnc2c1ncn2[C@@H]1O[C@H](CO)[C@@H](N)[C@H]1O [PAN, puromycin aminonucleoside] |  |  | PAN concentration causing half-maximal damage ([2]; Mus musculus, 48 h, read-out: PAN concentration causing half-maximal damage (half-maximal inhibitory concentration)): 16 µg/mL
C[S+]([O-])c1ccc(-c2nc(-c3ccncc3)c(-c3ccc(F)cc3)[nH]2)cc1 (stereo not shown) [SB 203580] | primary hit |  | 
O=C(NCc1ccccc1)c1csc(Nc2ccncn2)n1 [Thiazovivin] | primary hit |  | 
Nc1nc2nc[nH]c2c(=S)[nH]1 [Thioguanidine] | primary hits | prevented PAN induced injury | 
C[C@@H](N)[C@H]1CC[C@H](C(=O)Nc2ccncc2)CC1 [Y27632] | primary hit | prevented PAN induced injury | 
C=CC[C@]1(O)CC[C@H]2[C@@H]3CCC4=CC(=O)CCC4=C3C=C[C@@]21C [altrenogest] | identified |  | 
Agelasine | primary hits | prevented PAN induced injury | 
Derusnin |  | prevented PAN induced injury | 
Mundeserone |  | prevented PAN induced injury | 
antimycin A | primary hits |  | 
